Legend:
[1] = test system: arbre bronchial de rats Wistar; assay: Bronchosecretolytic activity: pulmonary excretion of fluorescein (Mawatari); format: in vivo; details: rats Wistar, 101,8 mg/Kg
Excerpt: L'activité bronchosécrétolytique de l'acétylsalicylate de 2(o-méthoxy-phénoxy)éthanol a été évaluée en comparaison avec celle du gaïacoléthanol, sur la base de la mesure des variations de la quantité d'indicateur (fluorescéine) trouvée dans l'arbre bronchial de rats Wistar, recueillie au moyen d'un système de lavage standardisé, après injection parentérale de l'indicateur, et mesurée au moyen d'un spectrofluorométre, suivant la méthode décrite par H.Mawatari ("Expérimental studies on the expectorant action of several drugs", Kagoshima Daigakeu Igakeu Zasshi, volume 27, page 561, 1976). Les résultats de l'élaboration statistique des épreuves sont recueillis dans le suivant tableau 4,dans lequel l' excrétion pulmonaire de fluorescéine est exprimée en microgrammes ± la déviation standard, soit dans la quantité totale trouvée, soit dans la quantité pour-cent rapportée à 100 g de poids corporel des rats. Entre parenthèses sont indiquées les valeurs de l'augmentation pour-cent par rapport aux contrôles. Pour les autres valeurs est valable ce qui été précisé en relation au Tableau 1.

[2] = test system: température corporelle, augmentée par l'injection intraveineuse de nucléinate de sodium dans le lapin; assay: Antipyretic activity: rise in body temperature induced by intravenous sodium nucleinate; format: in vivo; details: for Augmentation temperature corporelle - °C ± d.s. après 1 heure: 1 heure après l'administration; for Augmentation temperature corporelle - °C ± d.s. après 2 heures: 2 heures après l'administration; for Augmentation temperature corporelle - °C ± d.s. après 3 heures: 3 heures après l'administration; for Augmentation temperature corporelle - °C ± d.s. après 4 heures: 4 heures après l'administration
Excerpt: L'activité antipyrétique de l'acétylsalicylate de 2(o-méthoxy-phénoxy)éthanol a été evaluée en comparaison avec celle de l'acide acétylsalicylique suivant la méthode, universellement employée, de la mesure de la variation de la température corporelle, augmentée par 1' injection intraveineuse de nucléinate de sodium dans le lapin. Les résultats de l'élaboration statistique des épreuves sont indiqués dans le suivant Tableau 2, dans lequel l'augmentation de la température corporelle est indiquée en °C ± la déviation standard, et a été mesurée 1, 2, 3 et 4 heures après l'administration; pour les autres valeurs est valable ce qui a été spécifié en relation avec le Tableau 1.

[3] = test system: convulsions abdominales (writhings) induites dans le souris par une injection intrapéritonéale d'acide acétique; assay: Acetic acid writhing test (analgesic activity, Koster and Anderson); format: in vivo; details: for Frequence writhings: souris, 60 minutes après l'administration, ± déviation standard
Excerpt: L'activité analgésique de l'acétylsalicylate de 2(o-méthoxy-phénoxy)éthanol a été évaluée en comparaison avec celle de l'acide acétylsalicylique sur la base de la fréquence des convulsions abdominales (writhings) induites dans le souris par une injection intrapéritonéale d'acide acétique, suivant la technique décrite par Koster et Anderson (Fed. Proc., volume 18, page 412, 1959). Les résultats de l'élaboration statistique des épreuves sont indiqués dans le suivant Tableau 3, dans lequel la fréquence des convulsions est indiquée comme nombre de convulsions par minute ± la déviation standard, et a été mesurée 60 minutes après l'administration; pour les autres valeurs est valable ce qui a été spécifié en relation avec le Tableau 1.

[4] = test system: oedème induit par carraghénine injectée dans la patte de rats; assay: Carrageenan-induced rat paw oedema (antiphlogistic activity, Winter et al); format: in vivo; details: voie orale; for Volume de l'oedème - ml ± d.s. après 3 heures: 3 heures après le traitement oedémigène; for Volume de l'oedème - ml ± d.s. après 6 heures: 6 heures après le traitement oedémigène
Excerpt: L'activité antiphlogistique de l'acétylsalicylate de 2(o-méthoxy-phénoxy) éthanol a été évaluée en comparaison avec celle de l'acide acétylsalicylique sur la base de la variation de volume de l'oedème induit par carraghénine injectée dans la patte de rats, suivant la technique décrite par Winter et al (Proc. Soc. Exp. Biol. Med., volume III, page 544, 1962). Les résultats de l'élaboration des épreuves sont indiqués dans le Tableau 1, dans lequel le volume de l'oedème est indiqué en millilitres z la déviation standard, et il a été mesuré 3, 4,5 et 6 heures après le traitement oedémigène; la dose de substance est indiquée en milligrammes de substance administrée par voie orale pour chaque kilogramme de poids corporel des rats; les valeurs marquées par * correspondent à une probabilité d'erreur p < 0,05, les valeurs marquées correspondent à une probabilité d'erreur p < 0,01, calculées sur les valeurs des contrôles, et les valeurs indiquées entre parenthèses indiquent l'inhibition en pour-cent calculée par rapport aux contrôles.

rats = details: rat, in vivo, 500 mg/kg
Excerpt: La toxicité subaiguë de l'acétylsalicylate de 2(o-méthoxy-phénoxy)éthanol a été évaluée en comparaison avec celle de l'acide acétylsalicylique en administrant à des rats, par voie orale, des doses journalières de substance pour 10 jours, et en relevant le nombre des animaux morts, la diminution moyenne de poids des animaux traités et l'incidence des lésions gastriques relevées, distinguées en simple hyperémie, hyperémie accompagnée par hémorragie et hémorragie accompagnée par ulcérations. Les résultats des épreuves sont indiqués dans le Tableau 5, dans lequel la dose de substance administrée est exprimée en mg de substance par kg de poids corporel et par jour, et la diminution moyenne de poids corporel à la fin du traitement est exprimée en grammes.

## COc1ccccc1OCCO [Gaïacol-éthanol, gaïacoléthanol, reference compound]
[1]
  augmentation pour-cent par rapport aux contrôles (excrétion pulmonaire de fluorescéine, quantité totale): +72,2 pour-cent
[1]; rapportée à 100 g de poids corporel, ± déviation standard
  Excrétion pulmonaire de fluorescéine Quantité pour-cent µg/100 g: 0,202 ± 0,034 µg/100 g
[1]; ± déviation standard
  Excrétion pulmonaire de fluorescéine Quantité totale µg: 0,434 ± 0,064 µg

## CC(=O)Oc1ccccc1C(=O)O [Acide acétyl-salicylique, acide acétylsalicylique, reference compound]
[2]; 100 mg/Kg
  inhibition en pour-cent calculée par rapport aux contrôles, après 1 heure: 40 pour-cent
  Augmentation temperature corporelle - °C ± d.s. après 1 heure: 0,75 ± 0,16 °C
  inhibition en pour-cent calculée par rapport aux contrôles, après 2 heures: 46 pour-cent
  Augmentation temperature corporelle - °C ± d.s. après 2 heures: 0,78 ± 0,17 °C
  inhibition en pour-cent calculée par rapport aux contrôles, après 3 heures: 43 pour-cent
  Augmentation temperature corporelle - °C ± d.s. après 3 heures: 0,94 ± 0,12 °C
  inhibition en pour-cent calculée par rapport aux contrôles, après 4 heures: 26 pour-cent
  Augmentation temperature corporelle - °C ± d.s. après 4 heures: 0,55 ± 0,1 °C
[2]; 200 mg/Kg
  inhibition en pour-cent calculée par rapport aux contrôles, après 1 heure: 50 pour-cent
  Augmentation temperature corporelle - °C ± d.s. après 1 heure: 0,62 ± 0,13 °C
  inhibition en pour-cent calculée par rapport aux contrôles, après 2 heures: 51 pour-cent
  Augmentation temperature corporelle - °C ± d.s. après 2 heures: 0,71 ± 0,18 °C
  inhibition en pour-cent calculée par rapport aux contrôles, après 3 heures: 43 pour-cent
  Augmentation temperature corporelle - °C ± d.s. après 3 heures: 0,93 ± 0,16 °C
  inhibition en pour-cent calculée par rapport aux contrôles, après 4 heures: 31 pour-cent
  Augmentation temperature corporelle - °C ± d.s. après 4 heures: 0,52 ± 0,07 °C
[3]; 1 h
  inhibition at 100 mg/kg: 30%
  inhibition at 200 mg/kg: 44%
[3]; 100 mg/Kg
  Frequence writhings: *20,5 ± 6,7 convulsions par minute
[3]; 200 mg/Kg
  Frequence writhings: **16,4 ± 5,8 convulsions par minute
[4]; 100 mg/Kg
  inhibition en pour-cent calculée par rapport aux contrôles, après 3 heures: 44,0 pour-cent
  Volume de l'oedème - ml ± d.s. après 3 heures: 0,380 ± 0,21 ml
  inhibition en pour-cent calculée par rapport aux contrôles, après 6 heures: 41,0 pour-cent
  Volume de l'oedème - ml ± d.s. après 6 heures: 0,285 ± 0,18 ml
[4]; 100 mg/Kg, 4,5 heures
  inhibition en pour-cent calculée par rapport aux contrôles, après 4,5 heures: 35,0 pour-cent
[4]; 100 mg/Kg, 4,5 heures après le traitement oedémigène
  Volume de l'oedème - ml ± d.s. après 4,5 heures: 0,395 ± 0,14 ml
[4]; 200 mg/Kg
  inhibition en pour-cent calculée par rapport aux contrôles, après 3 heures: 56,5 pour-cent
  Volume de l'oedème - ml ± d.s. après 3 heures: 0,297 ± 0,17 ml
  inhibition en pour-cent calculée par rapport aux contrôles, après 6 heures: 43,0 pour-cent
  Volume de l'oedème - ml ± d.s. après 6 heures: 0,275 ± 0,18 ml
[4]; 200 mg/Kg, 4,5 heures
  inhibition en pour-cent calculée par rapport aux contrôles, après 4,5 heures: 39,0 pour-cent
[4]; 200 mg/Kg, 4,5 heures après le traitement oedémigène
  Volume de l'oedème - ml ± d.s. après 4,5 heures: 0,370 ± 0,09 ml
rats
  Lésions gastriques Hyperémie: 4
  Lésions gastriques Hyperémie + hémorragie: 3
  Lésions gastriques Hémorragie + ulcérations: 2
  Nombre animaux morts: 6
  Δ poids moyenne: -30 grammes
